Source: ChEMBL document CHEMBL5329166, “Discovery of imeglimin-inspired novel 1,3,5-triazine derivatives as antidiabetic agents in streptozotocin-induced diabetes in Wistar rats via inhibition of DPP-4” (RSC Med Chem, 2023)
Active and inactive are the calls of the source.

Legend:
[1] = test system: Rattus norvegicus; assay: Antioxidant activity in IG dosed high fat diet/STZ induced diabetic Wistar rat model assessed as reversal of GPx reduction in liver pretreated with STZ for 21 days followed by compound treatment once daily for 21 days by spectrophotometric analysis; assay type: functional, organism-based; conditions: dose 3-30 mg/kg, time 21.0 day
[2] = test system: Rattus norvegicus; assay: Antidiabetic activity in IG dosed high fat diet/STZ induced diabetic Wistar rat model assessed as reduction in blood sugar level pretreated with STZ for 21 days followed by compound treatment once daily for 21 days by glucose test strips based assay; assay type: functional, organism-based; conditions: dose 3-30 mg/kg, time 21.0 day
[3] = Acute toxicity in rat assessed as change in sleep patterns at 2000 mg/kg, po measured after 30 mins to 4 hrs; assay type: organism-based; conditions: in vivo, time 0.5-4 hrs
[4] = test system: Rattus norvegicus; assay: Antioxidant activity in IG dosed high fat diet/STZ induced diabetic Wistar rat model assessed as reversal of GSH reduction in liver pretreated with STZ for 21 days followed by compound treatment once daily for 21 days by spectrophotometric analysis; assay type: functional, organism-based; conditions: dose 3-30 mg/kg, time 21.0 day
[5] = test system: Rattus norvegicus; assay: Antioxidant activity in IG dosed high fat diet/STZ induced diabetic Wistar rat model assessed as reversal of SOD reduction in kidney pretreated with STZ for 21 days followed by compound treatment once daily for 21 days by spectrophotometric analysis; assay type: functional, organism-based; conditions: dose 3-30 mg/kg, time 21.0 day
[6] = test system: Rattus norvegicus; assay: Antioxidant activity in high fat diet/STZ induced diabetic Wistar rat model assessed as repair of pancreatic epithelial cells with reduced inflammation at 30 mg/kg, IG pretreated with STZ for 21 days followed by compound treatment once daily for 21 days by H and E staining based microscopic analysis; assay type: functional, organism-based; conditions: time 21.0 day
[7] = test system: Rattus norvegicus; assay: Antidiabetic activity in high fat diet/STZ induced diabetic Wistar rat model assessed as reduction in triglyceride level at 3 to 30 mg/kg, IG pretreated with STZ for 21 days followed by compound treatment once daily for 21 days by spectrophotometric analysis; assay type: functional, organism-based; conditions: dose 3-30 mg/kg, time 21.0 day
[8] = test system: Rattus norvegicus; assay: Antioxidant activity in IG dosed high fat diet/STZ induced diabetic Wistar rat model assessed as reversal of CAT reduction in liver pretreated with STZ for 21 days followed by compound treatment once daily for 21 days by spectrophotometric analysis; assay type: functional, organism-based; conditions: dose 3-30 mg/kg, time 21.0 day
[9] = test system: Rattus norvegicus; assay: Antioxidant activity in high fat diet/STZ induced diabetic Wistar rat model assessed as absence of feathery hepatocyte deterioration at 30 mg/kg, IG pretreated with STZ for 21 days followed by compound treatment once daily for 21 days by H and E staining based microscopic analysis; assay type: functional, organism-based; conditions: time 21.0 day
[10] = test system: Rattus norvegicus; assay: Antioxidant activity in high fat diet/STZ induced diabetic Wistar rat model assessed as appearance of dilated central veins in hepatocytes at 30 mg/kg, IG pretreated with STZ for 21 days followed by compound treatment once daily for 21 days by H and E staining based microscopic analysis; assay type: functional, organism-based; conditions: time 21.0 day
[11] = target: Dipeptidyl peptidase 8 (Homo sapiens, UniProt Q6V1X1); assay: Inhibition of N-terminal GST/His-tagged human recombinant DPP-8 (1 to 898 residues) expressed in Sf9 insect cells using Ala-Pro-AMC dipeptide as substrate by fluorescence based assay
[12] = target: Dipeptidyl peptidase 9 (Homo sapiens, UniProt Q86TI2); assay: Inhibition of N-terminal GST-tagged human recombinant DPP-9 short form (1 to 863 residues) expressed in Sf9 cells using Ala-Pro-AMC dipeptide as substrate by fluorescence based assay
[13] = Acute toxicity in rat assessed as change in salivation at 2000 mg/kg, po measured after 30 mins to 4 hrs; assay type: organism-based; conditions: in vivo, time 0.5-4 hrs
[14] = Antioxidant activity assessed as DPPH scavenging activity incubated for 30 mins by absorbance based assay; assay type: functional; conditions: dose 25-100 µg/ml
[15] = test system: Rattus norvegicus; assay: Antidiabetic activity in high fat diet/STZ induced diabetic Wistar rat model assessed as reduction in LDL level at 3 to 30 mg/kg, IG pretreated with STZ for 21 days followed by compound treatment once daily for 21 days by spectrophotometric analysis; assay type: functional, organism-based; conditions: dose 3-30 mg/kg, time 21.0 day
[16] = Acute toxicity in rat assessed as change in eyes and mucous membranes at 2000 mg/kg, po measured after 30 mins to 4 hrs; assay type: organism-based; conditions: in vivo, time 0.5-4 hrs
[17] = Acute toxicity in rat assessed as change in animal eyes at 300 to 1000 mg/kg, po measured after 6 hrs; assay type: organism-based; conditions: in vivo, dose 300-1000 mg/kg
[18] = test system: Rattus norvegicus; assay: Antioxidant activity in high fat diet/STZ induced diabetic Wistar rat model assessed as reduction in plasma cells in renal stroma at 3 to 3 to 30 mg/kg, IG pretreated with STZ for 21 days followed by compound treatment once daily for 21 days by H and E staining based microscopic analysis; assay type: functional, organism-based; conditions: dose 3-30 mg/kg, time 21.0 day
[19] = test system: Rattus norvegicus; assay: Antioxidant activity in high fat diet/STZ induced diabetic Wistar rat model assessed as appearance of round-oval nuclei in hepatocytes at 30 mg/kg, IG pretreated with STZ for 21 days followed by compound treatment once daily for 21 days by H and E staining based microscopic analysis; assay type: functional, organism-based; conditions: time 21.0 day
[20] = Acute toxicity in rat assessed as change in animal fur at 300 to 1000 mg/kg, po measured after 6 hrs; assay type: organism-based; conditions: in vivo, dose 300-1000 mg/kg
[21] = test system: Rattus norvegicus; assay: Antidiabetic activity in high fat diet/STZ induced diabetic Wistar rat model assessed as increase in HDL level at 3 to 30 mg/kg, IG pretreated with STZ for 21 days followed by compound treatment once daily for 21 days by spectrophotometric analysis; assay type: functional, organism-based; conditions: dose 3-30 mg/kg, time 21.0 day
[22] = test system: Rattus norvegicus; assay: Antioxidant activity in IG dosed high fat diet/STZ induced diabetic Wistar rat model assessed as reversal of GSH reduction in kidney pretreated with STZ for 21 days followed by compound treatment once daily for 21 days by spectrophotometric analysis; assay type: functional, organism-based; conditions: dose 3-30 mg/kg, time 21.0 day
[23] = Acute toxicity in rat assessed as diarrhoea at 300 to 1000 mg/kg, po measured after 6 hrs; assay type: organism-based; conditions: in vivo, dose 300-1000 mg/kg
[24] = test system: Rattus norvegicus; assay: Antioxidant activity in IG dosed high fat diet/STZ induced diabetic Wistar rat model assessed as reversal of GPx reduction in kidney pretreated with STZ for 21 days followed by compound treatment once daily for 21 days by spectrophotometric analysis; assay type: functional, organism-based; conditions: dose 3-30 mg/kg, time 21.0 day
[25] = Acute toxicity in rat assessed as change in animal skin and fur at 2000 mg/kg, po measured after 30 mins to 4 hrs; assay type: organism-based; conditions: in vivo, time 0.5-4 hrs

Dipeptidyl peptidase 9, sequence (Q86TI2 whole entry, the tested form may be a part): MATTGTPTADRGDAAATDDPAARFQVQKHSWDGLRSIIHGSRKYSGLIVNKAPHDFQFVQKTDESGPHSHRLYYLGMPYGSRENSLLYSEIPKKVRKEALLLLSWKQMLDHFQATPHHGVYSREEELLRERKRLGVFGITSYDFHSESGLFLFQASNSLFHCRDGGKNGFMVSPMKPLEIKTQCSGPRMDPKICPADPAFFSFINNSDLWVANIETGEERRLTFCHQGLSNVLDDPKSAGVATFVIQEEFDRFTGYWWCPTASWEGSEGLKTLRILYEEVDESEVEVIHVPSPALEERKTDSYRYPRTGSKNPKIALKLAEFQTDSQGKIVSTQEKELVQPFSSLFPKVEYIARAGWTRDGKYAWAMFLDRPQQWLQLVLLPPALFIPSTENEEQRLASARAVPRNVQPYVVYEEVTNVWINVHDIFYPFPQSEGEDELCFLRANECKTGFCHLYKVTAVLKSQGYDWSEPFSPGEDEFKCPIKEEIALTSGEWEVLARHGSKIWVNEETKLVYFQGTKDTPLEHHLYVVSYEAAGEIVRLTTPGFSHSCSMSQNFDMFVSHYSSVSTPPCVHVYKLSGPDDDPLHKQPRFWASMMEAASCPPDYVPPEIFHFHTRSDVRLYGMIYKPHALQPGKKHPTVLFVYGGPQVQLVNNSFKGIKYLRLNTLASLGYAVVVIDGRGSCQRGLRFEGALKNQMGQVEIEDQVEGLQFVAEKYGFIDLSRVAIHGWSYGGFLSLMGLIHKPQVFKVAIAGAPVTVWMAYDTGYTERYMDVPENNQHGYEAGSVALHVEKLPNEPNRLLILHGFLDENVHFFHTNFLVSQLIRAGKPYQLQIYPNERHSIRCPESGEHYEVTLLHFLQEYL
Dipeptidyl peptidase 8, sequence (Q6V1X1 whole entry, the tested form may be a part): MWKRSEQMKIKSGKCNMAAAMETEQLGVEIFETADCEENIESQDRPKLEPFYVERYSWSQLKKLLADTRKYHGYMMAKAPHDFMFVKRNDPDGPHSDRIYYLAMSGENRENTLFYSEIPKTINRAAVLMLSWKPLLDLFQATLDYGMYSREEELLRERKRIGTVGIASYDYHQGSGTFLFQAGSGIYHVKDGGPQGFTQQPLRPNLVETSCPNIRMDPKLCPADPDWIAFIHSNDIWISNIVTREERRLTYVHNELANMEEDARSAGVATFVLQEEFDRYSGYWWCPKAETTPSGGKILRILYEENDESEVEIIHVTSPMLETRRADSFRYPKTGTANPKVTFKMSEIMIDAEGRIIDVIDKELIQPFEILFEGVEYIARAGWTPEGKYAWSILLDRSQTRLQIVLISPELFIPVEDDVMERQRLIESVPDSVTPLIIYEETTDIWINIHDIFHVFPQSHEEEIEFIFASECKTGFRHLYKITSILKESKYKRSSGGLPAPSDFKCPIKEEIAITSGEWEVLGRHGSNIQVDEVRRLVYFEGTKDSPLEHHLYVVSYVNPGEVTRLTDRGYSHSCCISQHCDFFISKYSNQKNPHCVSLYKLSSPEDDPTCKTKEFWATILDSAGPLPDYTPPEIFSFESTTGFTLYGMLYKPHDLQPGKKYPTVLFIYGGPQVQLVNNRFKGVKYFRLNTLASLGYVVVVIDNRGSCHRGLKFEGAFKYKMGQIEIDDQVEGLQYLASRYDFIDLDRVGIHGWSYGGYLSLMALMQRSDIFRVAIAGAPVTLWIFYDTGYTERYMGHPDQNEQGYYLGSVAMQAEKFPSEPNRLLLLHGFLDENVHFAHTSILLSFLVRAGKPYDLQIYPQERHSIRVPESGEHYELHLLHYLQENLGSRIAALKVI

Nc1nc(NC2=NC(c3ccccc3)=CC(c3cccc([N+](=O)[O-])c3)O2)nc(N2CCOCC2)n1 (stereo not given)
active: Activity [1] Dose-Dependent Effect | Activity [2] Dose-Dependent Effect | Activity [4] Dose-Dependent Effect | Activity [5] Dose-Dependent Effect | Activity [6] | Activity [7] | Activity [8] Dose-Dependent Effect | Activity [9] | Activity [10] | Activity [14] Dose-Dependent Effect | Activity [15] | Activity [18] | Activity [19] | Activity [21] | Activity [22] Dose-Dependent Effect | Activity [24] Dose-Dependent Effect
> 400 nM: IC50 [11] | IC50 [12]
Non-Toxic: Activity [3] | Activity [13] | Activity [16] | Activity [17] | Activity [20] | Activity [23] | Activity [25]
